# Measurements: patent US9096624B2 (OSI Pharmaceuticals, LLC, priority 2009, dated 2015)
# Columns and labels:
# FAK [1] = target: T1, FAK (Homo sapiens, UniProt Q05397); experiment: biochemical
# FAK [2] = target: T1, FAK; experiment: Cell-based capture ELISA for inhibition of FAK autophosphorylation [pY397] in U87MG cells; conditions: Mean FAK Cell Mechanistic IC50 + 50% mP U87MG, + 50% mouse plasma
# T1 sequence (Q05397 whole entry): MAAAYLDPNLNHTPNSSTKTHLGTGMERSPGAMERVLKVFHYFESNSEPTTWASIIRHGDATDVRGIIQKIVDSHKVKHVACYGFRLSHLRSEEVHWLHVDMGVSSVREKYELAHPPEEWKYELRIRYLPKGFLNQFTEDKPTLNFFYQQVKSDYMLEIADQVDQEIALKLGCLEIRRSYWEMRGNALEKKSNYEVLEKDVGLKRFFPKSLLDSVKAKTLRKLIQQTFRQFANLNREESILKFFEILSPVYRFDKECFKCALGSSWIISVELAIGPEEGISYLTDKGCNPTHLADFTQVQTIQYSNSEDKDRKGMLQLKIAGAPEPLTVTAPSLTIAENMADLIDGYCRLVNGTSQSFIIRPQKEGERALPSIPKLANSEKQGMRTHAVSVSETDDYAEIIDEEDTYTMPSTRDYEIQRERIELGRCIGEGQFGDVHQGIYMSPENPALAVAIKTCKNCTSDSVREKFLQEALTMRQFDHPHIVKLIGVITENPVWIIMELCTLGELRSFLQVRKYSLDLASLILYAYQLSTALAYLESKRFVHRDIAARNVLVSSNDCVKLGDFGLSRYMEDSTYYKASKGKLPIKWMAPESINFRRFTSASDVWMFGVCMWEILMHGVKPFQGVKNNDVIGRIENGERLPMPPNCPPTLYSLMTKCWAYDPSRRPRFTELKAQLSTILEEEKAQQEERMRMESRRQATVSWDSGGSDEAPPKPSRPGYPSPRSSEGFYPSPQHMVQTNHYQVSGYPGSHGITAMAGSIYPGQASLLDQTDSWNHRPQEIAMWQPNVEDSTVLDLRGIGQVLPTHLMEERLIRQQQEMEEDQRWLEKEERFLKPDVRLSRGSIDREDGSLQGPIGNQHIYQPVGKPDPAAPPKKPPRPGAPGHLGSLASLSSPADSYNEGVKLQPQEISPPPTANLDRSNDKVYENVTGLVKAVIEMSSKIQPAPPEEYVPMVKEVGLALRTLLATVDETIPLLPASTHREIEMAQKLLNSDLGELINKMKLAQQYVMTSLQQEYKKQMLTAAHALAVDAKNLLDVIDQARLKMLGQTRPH
Structure (SMILES),IC50 (FAK [1]),IC50 (FAK [2])
"CCOP(=O)(Cc1ccc(Nc2ncc(C(F)(F)F)c(Nc3ccc([C@H]4CC[C@@H](C(=O)NO)CC4)c4c3C(=O)N(C)C4)n2)c(OC)c1)OCC [Example 275, Diethyl (4-{[4-({7-[cis-4-(hydroxycarbamoyl)cyclohexyl]-2-methyl-3-oxo-2,3-dihydro-1H-isoindol-4-yl}amino)-5-(trifluoromethyl)pyrimidin-2-yl]amino}-3-methoxybenzyl)phosphonate]",< 1000 nM,< 1000 nM
"CCOP(=O)(Cc1ccc(Nc2ncc(C(F)(F)F)c(Nc3ccc([C@H]4CC[C@@H](C(=O)O)CC4)c4[nH]cc(C)c(=O)c34)n2)c(OC)c1)OCC [Example 306, Cis-4-(5-{[2-({4-[(diethoxyphosphoryl)methyl]-2-methoxyphenyl}amino)-5-(trifluoromethyl)pyrimidin-4-yl]amino}-3-methyl-4-oxo-1,4-dihydroquinolin-8-yl)cyclohexanecarboxylic acid]",< 1000 nM,< 1000 nM
"CCOP(=O)(Cc1ccc(Nc2ncc(C(F)(F)F)c(Nc3cccc4c3c(=O)c(C)cn4C)n2)c(OC)c1)OCC [Example 300, Diethyl [4-({4-[(1,3-dimethyl-4-oxo-1,4-dihydroquinolin-5-yl)amino]-5-(trifluoromethyl)pyrimidin-2-yl}amino)-3-methoxybenzyl]phosphonate]",< 1000 nM,< 1000 nM
CCOC(=O)Cn1cc(C)c(=O)c2c(Nc3nc(Nc4ccc(CP(=O)(OCC)OCC)cc4OC)ncc3C(F)(F)F)cccc21 [Example 301],< 1000 nM,< 1000 nM
"CCOP(=O)(Cc1cnc(Nc2ncc(C(F)(F)F)c(Nc3ccc([C@H]4CC[C@H](O)CC4)c4c3C(=O)N(C)C4)n2)c(OC)c1)OCC [Example 308, Diethyl [(6-{[4-{[7-(trans-4-hydroxycyclohexyl)-2-methyl-3-oxo-2,3-dihydro-1H-isoindol-4-yl]amino}-5-(trifluoromethyl)pyrimidin-2-yl]amino}-5-methoxypyridin-3-yl)methyl]phosphonate]",< 1000 nM,1000 to 10000 nM
"CCOP(=O)(Cc1ccc(Nc2ncc(C(F)(F)F)c(Nc3ccc(C4CCNCC4)c4c3C(=O)N(C)C4)n2)c(OC)c1)OCC [Example 263, Diethyl (3-methoxy-4-{[4-{[2-methyl-3-oxo-7-(piperidin-4-yl)-2,3-dihydro-1H-isoindol-4-yl]amino}-5-(trifluoromethyl)pyrimidin-2-yl]amino}benzyl)phosphonate]",< 1000 nM,< 1000 nM
"CCOP(=O)(Cc1ccc(Nc2ncc(C(F)(F)F)c(Nc3ccc(C4CCN(C)CC4)c4c3C(=O)N(C)C4)n2)c(OC)c1)OCC [Example 269, Diethyl (3-methoxy-4-{[4-{[2-methyl-7-(1-methylpiperidin-4-yl)-3-oxo-2,3-dihydro-1H-isoindol-4-yl]amino}-5-(trifluoromethyl)pyrimidin-2-yl]amino}benzyl)phosphonate]",< 1000 nM,< 1000 nM
CCOP(=O)(Cc1ccc(Nc2ncc(C(F)(F)F)c(Nc3nccc4c3C(=O)N(C)C4)n2)c(OC)c1)OCC [Example 311],< 1000 nM,1000 to 10000 nM
CCOP(=O)(Cc1ccc(Nc2ncc(C(F)(F)F)c(Nc3cccc4c3c(=O)c(C)cn4CC(=O)O)n2)c(OC)c1)OCC [Example 302],< 1000 nM,1000 to 10000 nM
"CCOP(=O)(Cc1ccc(Nc2ncc(C(F)(F)F)c(Nc3ccc(C4=CCNCC4)c4c3C(=O)N(C)C4)n2)c(OC)c1)OCC [Example 262, Diethyl (3-methoxy-4-{[4-{[2-methyl-3-oxo-7-(1,2,3,6-tetrahydropyridin-4-yl)-2,3-dihydro-1H-isoindol-4-yl]amino}-5-(trifluoromethyl)pyrimidin-2-yl]amino}benzyl)phosphonate]",< 1000 nM,< 1000 nM
"CCOC(=O)[C@H]1CC[C@H](c2ccc(Nc3nc(Nc4ccc(CP(=O)(OCC)OCC)cc4OC)ncc3C(F)(F)F)c3c(=O)c(C)c[nH]c32)CC1 [Example 304, Ethyl trans-4-(5-{[2-({4-[(diethoxyphosphoryl)methyl]-2-methoxyphenyl}amino)-5-(trifluoromethyl)pyrimidin-4-yl]amino}-3-methyl-4-oxo-1,4-dihydroquinolin-8-yl)cyclohexanecarboxylate]",< 1000 nM,< 1000 nM
"CCOP(=O)(Cc1ccc(Nc2ncc(C(F)(F)F)c(Nc3ccc(C4=CCN(C)CC4)c4c3C(=O)N(C)C4)n2)c(OC)c1)OCC [Example 264, Diethyl (3-methoxy-4-{[4-{[2-methyl-7-(1-methyl-1,2,3,6-tetrahydropyridin-4-yl)-3-oxo-2,3-dihydro-1H-isoindol-4-yl]amino}-5-(trifluoromethyl)pyrimidin-2-yl]amino}benzyl)phosphonate]",< 1000 nM,< 1000 nM
"CCOC(=O)[C@H]1CC[C@@H](c2ccc(Nc3nc(Nc4ccc(CP(=O)(OCC)OCC)cc4OC)ncc3C(F)(F)F)c3c(=O)c(C)c[nH]c32)CC1 [Example 305, Ethyl cis-4-(5-{[2-({4-[(diethoxyphosphoryl)methyl]-2-methoxyphenyl}amino)-5-(trifluoromethyl)pyrimidin-4-yl]amino}-3-methyl-4-oxo-1,4-dihydroquinolin-8-yl)cyclohexanecarboxylate]",< 1000 nM,< 1000 nM
"CCOP(=O)(Cc1ccc(Nc2ncc(C(F)(F)F)c(Nc3ccc(-c4ccc(C(=O)O)cc4)c4c3C(=O)N(C)C4)n2)c(OC)c1)OCC [Example 270, 4-(7-{[2-({4-[(diethoxyphosphoryl)methyl]-2-methoxyphenyl}amino)-5-(trifluoromethyl)pyrimidin-4-yl]amino}-2-methyl-1-oxo-2,3-dihydro-1H-isoindol-4-yl)benzoic acid]",< 1000 nM,1000 to 10000 nM
"CCOP(=O)(CC)Cc1ccc(Nc2ncc(C(F)(F)F)c(Nc3ccc([C@H]4CC[C@H](O)CC4)c4c3C(=O)N(C)C4)n2)cc1 (stereo partly drawn) [Example 202, Ethyl ethyl(4-{[4-{[7-(trans-4-hydroxycyclohexyl)-2-methyl-3-oxo-2,3-dihydro-1H-isoindol-4-yl]amino}-5-(trifluoromethyl)pyrimidin-2-yl]amino}benzyl)phosphinate]",< 1000 nM,< 1000 nM
"CCOP(=O)(Cc1ccc(Nc2ncc(C(F)(F)F)c(Nc3ccc([C@H]4CC[C@H](O)CC4)cc3C(=O)N(C)C)n2)c(OC)c1)OCC [Example 195, diethyl (4-{[4-{[2-(dimethylcarbamoyl)-4-(trans-4-hydroxycyclohexyl)phenyl]amino}-5-(trifluoromethyl)pyrimidin-2-yl]amino}-3-methoxybenzyl)phosphonate]",< 1000 nM,1000 to 10000 nM
"CCOP(=O)(Cc1ccc(Nc2ncc(C(F)(F)F)c(Nc3c(F)cccc3C(=O)NC)n2)c(OC)c1)OCC [Example 154, Diethyl (4-{[4-{[2-fluoro-6-(methylcarbamoyl)phenyl]amino}-5-(trifluoromethyl)pyrimidin-2-yl]amino}-3-methoxybenzyl)phosphonate]",< 1000 nM,< 1000 nM
"CCOP(=O)(Cc1ccc(Nc2ncc(C(F)(F)F)c(Nc3ccc(N4CCNC(C(=O)O)C4)c4c3C(=O)N(C)C4)n2)c(OC)c1)OCC (stereo not drawn) [Example 287, 4-(7-{[2-({4-[(Diethoxyphosphoryl)methyl]-2-methoxyphenyl}amino)-5-(trifluoromethyl)pyrimidin-4-yl]amino}-2-methyl-1-oxo-2,3-dihydro-1H-isoindol-4-yl)piperazine-2-carboxylic acid]",< 1000 nM,1000 to 10000 nM
